From US5192756A, “Aminosterol antibiotic” (The Children's Hospital of Pennsylvania, priority 1992, dated 1993)
≈ marks a conversion by molar mass, not a printed value. Entries after “also recorded” stand apart in the source; their conditions may differ.

Key:
[1] = system: E. coli D31; experiment: Protease resistance of antimicrobial activity (proteinase K); assay type: in vitro ADME; details: proteinase K 2 mg/ml, one hour, 37° C.; E. coli D31 lawn
Protocol: Proteinase K (final concentration 2 mg/ml) was added to 0.2 μg/μl squalamine or 0.8 μg/μl magainin II amide in 1×phosphate-buffered saline. After a one hour incubation at 37° C., 2 μl of each sample was applied to the lawn of E. coli D31.

[2] = system: E. coli; experiment: Minimal inhibitory concentration, E. coli; assay type: cell-based; details: Escherichia coli, ATCC25922; E. coli ATCC 25922; 1/2×TSB, 37° C., 18 to 24 hours
Protocol: (§1) Squalamine was assayed in vitro against several microbial organisms to evaluate its spectrum of activity.
(§2) Minimal inhibitory concentrations for the bacteria and yeast were determined by incubating 0.9-11×10^5 colony-forming units/ml of log-phase organisms in 1/2×tryptica soy broth (TSB) with increasing concentrations of sample in static 96-2311 microtiter plates (Corning, Inc., Corning, N.Y.) at 37° C. for 18 to 24 hours. The minimal inhibitory concentration is the concentration of sample at which no growth was observed. Control incubation in the absence of […] served to set a baseline value.
(§3) Initial sample concentrations were 2 mg/ml in 250 mM sodium acetate pH 6.6, 11.2 mM HCl, except taurolithocholic acid 3-sulfate which was 2 mg/ml in 50 mM sodium acetate, and squalamine to which HCl was not added because it was acidic following the last step of purification. Spermidine HCl, taurolithocholic acid 3-sulfate, melittin, holothurin and ampicillin were purchased from Sigma (St. Louis, Miss.). CHAPS (3-[(3-cholamidopropyl)dimethylammonio]-1-propane sulfonate dihydrate) was purchased from Aldrich (Milwaukee, Wis.). Conessine was purchased from Aldrich Rare Chemicals Division (Milwaukee, Wis.). Magainin-II amide and CPF-amide were made by Magainin Pharmaceuticals, Inc. (Plymouth Meeting, Penn.). The CPF peptide used in the assay has the sequence […]-NH2. (Richter, K., et al., J. Biol. Chem. 261, 3676-3680 (1986).

[3] = system: Proteus vulgaris; experiment: Minimal inhibitory concentration, Proteus vulgaris; assay type: cell-based; details: ATCC13315; Proteus vulgaris ATCC 13315; 1/2×TSB, 37° C., 18 to 24 hours
Protocol: as §1, §2, §3

[4] = Tissue distribution of squalamine in Squalus acanthias
Protocol: The tissue distribution of squalamine was determined by extraction of freshly obtained tissues of Squalus using the same procedure as described in Example 1 for the stomach extraction. Other Squalus acanthias tissues (about 50 g of liver, gallbladder, spleen, testes, gill and intestine) were extracted as above, and purified through the C18 HPLC stage. Antimicrobial activity was detected in each tissue, and one reversed-phasefraction from each tissue was analyzed by FAB mass spectroscopy. The yield from the stomach was determined by spotting several dilutions onto a TLC plate and comparing the ninhydrin staining to a spermidine standard curve. The result agreed with the estimate obtained by NMR spectroscopy when the squalamine signal intensity was compared to that of a standard. An estimate of the yield of squalamine from other tissues was made by comparing the antimicrobial activity of reversed-phase fractions to the activity from the stomach.

[5] = system: Strep. faecalis; experiment: Minimal inhibitory concentration, Strep. faecalis; assay type: cell-based; details: Enterococcus faecalis, ATCC29212; Strep. faecalis ATCC 29212; 1/2×TSB, 37° C., 18 to 24 hours
Protocol: as §1, §2, §3

[6] = system: several microbial organisms; experiment: In vitro antimicrobial spectrum (bacteria, fungi, protozoa), in words; assay type: cell-based
Protocol: as §1, §2, §3
(§4) Minimal disruptive concentration (the concentration at which physical disruption of the protozoa occurred) was determined for the protozoa by adding […] of sample (in sodium acetate as above) to […] of 1% trypticase soy broth containing P. caudatum (Nasco, Fort Atkinson, Wiss,). Organisms were observed by light microscopy for ten minutes.

[7] = system: E. coli D31; experiment: Heat resistance of antimicrobial activity (boiling); assay type: physicochemical; details: 0.2 μg/ml in 1×phosphate buffered saline, boiled fifteen minutes, E. coli D31 lawn
Protocol: Squalamine at 0.2 μg/ml in 1×phosphate buffered saline was boiled for fifteen minutes. A 2 μl aliquot of the sample before and after boiling was applied to a lawn of E. coli D31.

[8] = system: Pseudomonas aeruginosa; experiment: Minimal inhibitory concentration, Pseudomonas aeruginosa; assay type: cell-based; details: ATCC27853; Pseudomonas aeruginosa ATCC 27853; 1/2×TSB, 37° C., 18 to 24 hours
Protocol: as §1, §2, §3

[9] = system: Candida albicans; experiment: Minimal inhibitory concentration, Candida albicans; assay type: cell-based; details: ATCC14053; Candida albicans ATCC 14053; 1/2×TSB, 37° C., 18 to 24 hours
Protocol: as §1, §2, §3

[10] = system: Serratia marcescens; experiment: Minimal inhibitory concentration, Serratia marcescens; assay type: cell-based; details: ATCC8100; Serratia marcescens ATCC 8100; 1/2×TSB, 37° C., 18 to 24 hours
Protocol: as §1, §2, §3

[11] = system: Paramecium caudatum; experiment: Minimal disruptive concentration, Paramecium caudatum; assay type: cell-based; details: 1% trypticase soy broth, light microscopy for ten minutes, read-out: Minimal Inhibitory Concentration (minimal disruptive concentration for the protozoa)
Protocol: as §1, §3, §4

[12] = system: Staph. aureus; experiment: Minimal inhibitory concentration, Staph. aureus; assay type: cell-based; details: Staphylococcus aureus, ATCC29213; Staph. aureus ATCC 29213; 1/2×TSB, 37° C., 18 to 24 hours
Protocol: as §1, §2, §3

[13] = system: human erythrocytes; experiment: Hemolytic activity against human erythrocytes; assay type: cell-based
Protocol: Because of its structural resemblance to steroidal detergents, squalamine was assayed for its hemolytic activity against human erythrocytes.
Each sample was diluted in H2 O and was added to a 10% (vol/vol) suspension of human erythrocytes in phosphate buffered saline (PBS). Erythrocytes were collected with heparin and washed once in 1×PBS before the assay. Samples were incubated at 37° C. for ten minutes, centrifuged at 12,000× g for one minute, and the OD350 of the supernatant was measured. Addition of Triton X-100 (final concentration 0.1%) defined 100% hemolysis.

For `CC(C)C(CC[C@@H](C)[C@H]1CC[C@H]2[C@@H]3[C@H](O)C[C@H]4C[C@@H](NCCCNCCCCN)CC[C@]4(C)[C@H]3CC[C@]12C)OS(=O)(=O)O` (stereo partly drawn) [Squalamine, 3β(N-[3-aminopropyl]-1,4-butanediamine)-7α,24.zeta.-dihydroxy-5α-cholestane 24-sulfate], the “antimicrobial activity after proteinase K digestion” value [1] was “retained its activity; also recorded: resistant to boiling and protease treatment”, the MIC [2] was 1 to 2 µg/mL (≈ 1.59 to 3.18 µM) and the MIC [3] was 4 to 8 µg/mL (≈ 6.37 to 12.7 µM). For the same molecule, the “squalamine content of tissue” value ([4]; gills) was 0.5 μg/gm, the “squalamine content of tissue” value ([4]; intestine) was 0.02 μg/gm and the “squalamine content of tissue” value ([4]; liver and gall bladder) was 4-7 μg/gm. For the same molecule, the “squalamine content of tissue” value ([4]; spleen) was “about 2 μg/gm”, the “squalamine content of tissue” value ([4]; stomach) was 1 μg/gm and the “squalamine content of tissue” value ([4]; testes) was “about 2 μg/gm”. For the same molecule, the MIC [5] was 1 to 2 µg/mL (≈ 1.59 to 3.18 µM), the “antibacterial activity (in words)” value ([6]; bacteria of Table I) was “compares in antibacterial potency to ampicillin” and the “antibiotic activity (in words)” value ([6]; bacteria, fungi, protozoa, concentration range studied) was “broad range of potent antibiotic activity against a plurality of microorganisms including gram-positive and gram-negative bacteria, fungi, protozoa and the like; also recorded: somewhat more potent than the Xenopus antimicrobial peptides”. For the same molecule, the “antimicrobial activity after boiling” value [7] was “retained its antimicrobial activity after boiling”, the “antimicrobial activity after boiling” value ([7]; listed as squalamine) was “resistant to boiling and protease treatment” and the MIC [8] was 4 to 8 µg/mL (≈ 6.37 to 12.7 µM). The MIC [9] was 4 to 8 µg/mL (≈ 6.37 to 12.7 µM), the MIC [10] was > 125 µg/mL and the MIC [11] was 4 to 8 µg/mL (≈ 6.37 to 12.7 µM). The MIC [12] was 1 to 2 µg/mL (≈ 1.59 to 3.18 µM), the “hemolytic activity (in words)” value ([13]; FIG. 3, 37° C., ten minutes) was “exhibits some hemolytic activity, it occurs at higher concentrations than observed for a non-selective membrane disruptive amphipathic peptide, such as mellitin” and the “antibiotic versus hemolytic concentration / selectivity (in words)” value ([13]; antibiotic activity compared with erythrocyte disruption) was “exerts antibiotic activity at concentrations below which erythrocyte disruption is observed”.
